Results taken from patent publication US20080111109A1, “ORGANIC-ELECTROLUMINESCENCE-MATERIAL-CONTAINING SOLUTION, METHOD FOR FORMING THIN FILM OF ORGANIC ELECTROLUMINESCENCE MATERIAL, THIN FILM OF ORGANIC ELECTROLUMINESCENCE MATERIAL AND ORGANIC ELECTROLUMINESCENCE DEVICE” (Idemitsu Kosan Co., Ltd., priority 2006, published 2008).

Test: Solubility in the solvent of a naphthacene compound with para-bonded aromatic substituents
Assay type: physicochemical
Settings: solvent not specified (aromatic, halogen type or ether type solvent)

Q: For `c1ccc(-c2ccc(-c3c4ccccc4c(-c4ccc(-c5ccccc5)cc4-c4ccccc4)c4cc5ccccc5cc34)c(-c3ccccc3)c2)cc1`, which solubility is on record?
A: ≤ 0.1 wt %
